According to patent US20180291402A1, “Linalool Composition and Method of Producing Therefor” (AJINOMOTO CO., INC., priority 2015, published 2018):

Experiments:
[1] = general statement on two-phase culture; cited from earlier work
[2] = test system: SWITCH-PphoC Δgcd/pSTV28 strain; assay: Linalool addition test (growth, O.D. value over time); format: cell-based, P. ananatis; conditions: reagent Linalool added at O.D. 0.6 to 0.7; tested at 1251, 837, 626 and 417 mg/L; M9 minimum medium, 34° C.; FIG. 58
Procedure: The glycerol stock of the SWITCH-PphoC Δgcd/pSTV28 strain obtained by transforming the SWITCH-PphoC Δgcd strain constructed in Example 2 with the commercially available plasmid vector pSTV28 (produced by Takara Bio Inc.) was thawed, and 50 μL of a microbial cell suspension was uniformly applied onto an LB plate containing 60 mg/L of chloramphenicol and cultured at 34° C. for 18 hours while left to stand (without agitation). […] Cultivation was carried out using a small-sized shaking culture apparatus TVS062CA (produced by Advantec Toyo Kaisha, Ltd.) for 23 hours, the shaking of 5.0 sec was stopped every 15 minutes, and the O.D. values were automatically measured.
The concentration of linalool in the culture medium was calculated from the specific gravity of the reagent Linalool (0.86 (20/4° C.)) (reference literature: actual values supplied from Wako Pure Chemical Industries, Ltd.).
The graph showing changes of the O.D. value over time measured using TVS062CA communication software (TV100070, produced by Advantec Toyo Kaisha, Ltd.) is illustrated in FIG. 58.

SMILES: C=C[C@](C)(O)CCC=C(C)C [R-linalool, (3R)-3,7-dimethylocta-1,6-diene-3-ol]
- solubility with respect to water [1]: low solubility

SMILES: C=C[C@@](C)(O)CCC=C(C)C [S-linalool, (3 S)-3,7-dimethylocta-1,6-diene-3-ol]
- solubility with respect to water [1]: low solubility

SMILES: C=CC(C)(O)CCC=C(C)C (stereo not drawn) [linalool, Linalool]
- concentration of linalool added to the culture medium at which the O.D. value is decreased (microbial cell growth inhibition) [2]: ≥ 626 µg/mL
